Key:
[1] = time of release/action of active substances after application to the skin; format: in vivo; details: for time of release on application to the skin: Example 4, product as it is or mixed with cosmetic cream, gel or lotion
Protocol: The microspheres are constituted by a copolymer of 2 moles of styrene with 2 moles of butadiene and 1 mole of 2-aminoethanol methacrylate. They are prepared in the known manner, in aqueous dispersion with Na dodecylsulfate as a surfactant and K persulfate as a catalyst. After polymerization, the microspheres are neutralized, purified by aqueous dialysis and passed over an ion-exchange resin.
0.09 g of pyrrolidone carboxylic acid, which binds to the methacrylate --NH2 group forming a covalent amide bond, is added to 100 ml of suspension of 4 g of these microspheres numbering […] (average size 96 nm). Another purification is then carried out and 6.1 g of dimethyl silanol hyaluronate, the same as in example 1, are added to the suspension and adsorbed.
The resulting suspension of 106.1 g thus contains 0.09 g of pyrrolidone carboxylic acid and 0.28 g of the Si contained in dimethyl silanol hyaluronate. Application to the skin of the product as it is, or mixed with a cosmetic cream, gel or lotion leads to release of the pyrrolidone compound in 2 to 5 hours and release of the hyaluronate compound in 10 to 17 hours. A synergetic effect of the two active substances is also observed for 2 to 5 hours, followed by a longer period of hyaluronate action only.
The microspheres prepared in the known manner, described at the beginning of example 4, consist of a copolymer of 4 moles of styrene with 1 mole of acrylic acid.
(A)-100 g of an aqueous suspension of 5 g of microspheres are reacted with 0.126 g of theophylline, which binds to the acryl groups.
(B)-The microspheres are then given functional groups using diamine hexamethylene, after which they are treated with a 40 g/kg elastin aqueous solution. 0.3 g of elastin polypeptides thus bind to the copolymer.
(C)-The product obtained is purified and made to adsorb Ruscus Aculeatus glucosides, from an aqueous extract of this plant (Ruscus 1=33).

[2] = adsorption (charging) of active substance onto copolymer microspheres/nanospheres; format: physicochemical; details: 60% styrene / 40% methyl methacrylate copolymer, average 95 nm; room temperature, 48 hours
[3] = Protocol: 100 g of an aqueous suspension of 5 g of nanospheres having a diameter of about 70 to 130 nm (average 100 nm) are prepared by the copolymerization of an emulsion of 4 moles of styrene and 1 mole of acrylic acid, according to the technique described in example 2. 0.126 g of theophylline, which binds to the acrylic acid groups of the copolymer by an electronic-type chemical interaction, is added to these 100 g.
A liquid product (a-b) composed of two sets of copolymer/active substance nanospheres is thus obtained:
The liquid (a-b) is submitted to tests on an experimental model, reproducing diffusion phenomena in the skin.
The proportions of each of the active substances which may have been in contact with the skin in 3 hours is thus determined.
Given below are the percentages of the initial amount of each of these active substances which, according to the tests mentioned hereinabove, may have been diffused into the skin from the liquid studied:
They thus contained no --COOH groups likely to react with the --NH groups of theophylline. […]
As above, the amount of active principal available to the skin in 3 hours was determined. […]
The proportion of theophylline which is available to the skin in 3 hours and in 5 hours is then determined from 100 g of an aqueous suspension of 5 g of nanosphere charged as described above. […]

Compound	time of release on application to the skin [1] [h]	microspheres are charged with dimethylsilanediol hyaluronate [2] [%]	time of action after application ([1]; in vivo) [h]	amount available to the skin, tempering ratio without : with nanospheres [3] [times]	amount of active principal available to the skin in 3 hours [3] [%]
dimethylsilanediol hyaluronate	10 to 17	30	–	–	–
O=C1CC[C@@H](C(=O)O)N1 [pyrrolidone carboxylic acid]	2 to 5	–	–	–	–
Cn1c(=O)c2[nH]cnc2n(C)c1=O [theophylline]	–	–	2 to 8	2.5	20

From US5264207A, “Products for cutaneous applications with cosmetic and/or therapeutic effects” (EXSYMOL S.A.M., priority 1989, dated 1993)
